The source of these data is patent US9402821B2, “Methods and pharmaceutical compositions for treatment of cystic fibrosis” (INSERM (Institut National de la sante et de la Recherche …, priority 2012, dated 2016).

“Also recorded” adds a separate entry of the source.

Holding throughout (type): cell-based
One assay has as its system IL-8 promoter. In words: IL-8 promoter luciferase reporter / IL-8 mRNA qPCR, TNFα-stimulated cells. To be noted: TNFα 10 ng/ml; bronchial epithelial cells and heterologous HeLa models (FIGS. 2A, B). The protocol: Cells were transiently transfected by the short IL-8 promoter-firefly luciferase reporter and renilla luciferase reference and inflammation was induced by 10 ng/ml TNFα for 1 h. A. HeLa cells were pre-treated with diluent or different doses of sulindac 1 h before inflammation induction and 4 h after. IL-8 promoter activity in cells treated with sulindac+TNFα was expressed in percent of diluent+TNFα. B. After treatment, HeLa Ctr cells were lysed with TRIzol (Invitrogen). Total RNA was extracted, and 1 μg of total RNA was reverse transcribed with a reverse transcription kit. IL-8 mRNA expression was quantified by real-time quantitative PCR (qPCR). The comparative threshold cycle (CT) method was used for relative quantification of PCR products after IL-8 was normalised to TBP (ΔCt=CtIL-8−CtTBP). […] C After treatment, IL-8 in supernatant was measured by ELISA. The IL-8 stimulation of cells treated with test drug +TNFα were expressed as fold compared to drug −TNFα. […]
Cells were lysed with the Passive Lysis Buffer (Promega), and luciferase activity in the cellular extracts was determined by the Dual Luciferase Assay System (Promega) using a luminometer (Tristar; Berthold). The results were normalized to those obtained with the Renilla luciferase reference plasmid used to control the transfection efficiency, and the values were expressed as luminescence intensity (Luciferase/Renilla). […]
(In general: Reporter assays use an easily measured gene product as a stand-in for the process of interest.)

Another assay concerns IL-8 secretion. In words: IL-8 release into supernatant of cell cultures. To be noted: TNFα; Beas2B, Calu-3 and heterologous HeLa systems (FIG. 2C). The protocol:
Cells were transiently transfected by the short IL-8 promoter-firefly luciferase reporter and renilla luciferase reference and inflammation was induced by 10 ng/ml TNFα for 1 h. A. HeLa cells were pre-treated with diluent or different doses of sulindac 1 h before inflammation induction and 4 h after. IL-8 promoter activity in cells treated with sulindac+TNFα was expressed in percent of diluent+TNFα. B. After treatment, HeLa Ctr cells were lysed with TRIzol (Invitrogen). Total RNA was extracted, and 1 μg of total RNA was reverse transcribed with a reverse transcription kit. IL-8 mRNA expression was quantified by real-time quantitative PCR (qPCR). The comparative threshold cycle (CT) method was used for relative quantification of PCR products after IL-8 was normalised to TBP (ΔCt=CtIL-8−CtTBP). IL-8 mRNA data in treated samples were expressed in fold changes over controls: fold changetreated sample=2^−ΔΔCt (with ΔΔCt=ΔCtreated sample−ΔCtcontrol). C After treatment, IL-8 in supernatant was measured by ELISA. The IL-8 stimulation of cells treated with test drug +TNFα were expressed as fold compared to drug −TNFα. […]
IL-8 secretion into the supernatant of cells cultures was measured with the IMMULITE 1000 Automated Analyser (Diagnostic Products Corp) and the commercially available Immulite chemiluminescent enzyme immunometric assays (Immulite®) according to the manufacturer's instructions.

Assay [1] deals with AP-1 transcriptional activity. In words: AP-1 firefly luciferase reporter assay, TNFα-stimulated HeLa cells. To be noted: 500 μM, TNFα 10 ng/ml.
Procedure: HeLa cells were transiently transfected by AP-1 firefly luciferase reporter and renilla luciferase reference. HeLa control cells were pre-treated with diluent (0.5%), ibuprofen (500 μM) or sulindac (500 μM) for 1 h and stimulated for 1 h with 10 ng/ml TNFα. After removal of TNFα, cells were incubated for 4 h with pharmacological treatment. The AP-1 transcriptional activity in cells treated with ibuprofen+TNFα and sulindac +TNFα was expressed in percent of diluent+TNFα. Results of three independent experiments, means±SEM. Unilateral paired t test: ** p<0.01. To assay the transcriptional activity of AP-1, pAP1Luc, a luciferase reporter plasmid containing five sequential AP-1 binding sites upstream of a minimum promoter element, was used. […] To normalize transfection efficiency, a renilla luciferase reporter construct (pRL-TK, Promega) was co-transfected with each of the firefly luciferase constructs. To induced AP-1 activity, cells were exposed to TNFα (10 ng/mL) for 1 hour. Cells were pre- and treated with sulindac, ibuprofen or vehicule control one hour before and four hours after this induction.
In assay [2] the test system is PPAR transcriptional activity. Briefly: PPAR firefly luciferase reporter assay (3 PPRE motifs) in HeLa cells. The settings on record: sulindac 100 μM, 24 h. The protocol:
HeLa control cells were transiently transfected by PPAR firefly luciferase reporter (3 PPRE motifs) and renilla luciferase reference. Cells were treated with diluent (0.5%), ibuprofen (500 μM) or sulindac (100 μM) for 24 h. The PPAR transcriptional activity in cells treated with ibuprofen and sulindac was expressed in percent of diluents. Results of three independent experiments, means±SEM. Unilateral paired t test: ** p<0.01.
To assay the transcriptional activity of AP-1, pAP1Luc, a luciferase reporter plasmid containing five sequential AP-1 binding sites upstream of a minimum promoter element, was used. Transcriptional activity of PPAR was evaluated with reporter constructs with three sequential PPRE consensus sequences, binding PPAR factors. Transient transfection were realized as described before. To normalize transfection efficiency, a renilla luciferase reporter construct (pRL-TK, Promega) was co-transfected with each of the firefly luciferase constructs. To induced AP-1 activity, cells were exposed to TNFα (10 ng/mL) for 1 hour. Cells were pre- and treated with sulindac, ibuprofen or vehicule control one hour before and four hours after this induction. For PPAR activity, cells were treated with pharmacological drugs for 24 hours.
Luciferase assay was realized as described before.

For the next assay, the system named is IκB. Briefly: Western blot of cytosolic IκB after TNFα. The settings on record: HeLa control cells; 500 μM 1 h pre-treatment; TNFα 10 ng/ml 30 min. The protocol:
(§1) HeLa control cells were pre-treated with diluent (0.5%) or sulindac (500 μM) for 1 h and stimulated or not with 10 ng/ml TNFα for 30 min. Nuclear and cytosolic fractions were obtained by differential centrifugation. A. Analysis by western blot of cytosolic IKb quantity. The Iκb quantity was expressed in percent of control. […] B. Analysis by western blot of nuclear p65 quantity. Nuclear p65 quantity was expressed in percent of diluents+TNFα.
(§2) Nuclear and cytosolic fraction was obtained by differential centrifugation. Briefly, cells were lyses in buffer C (10 mM Hepes, 60 mM KCl, 1 mM EDTA, 7.8% NP40, 100 mM DTT, pH 7.6). After centrifugation, nucleus pellet were lyses in buffer N (27 mM Tris, 566 mM NaCl, 2 mM MgCl2, 1.3 mM EDTA, pH 8). Aliquots of fraction (30 μg protein) were separated by SDS-PAGE and transferred on PVDF membrane. The western blots were probed with mouse monoclonal antibodies specific for IκB or p65 (Santa-Cruz) 2 h at room temperature.

For a further assay, the system named is p65. In words: Western blot of nuclear p65 after TNFα. The settings on record: HeLa control cells; 500 μM 1 h pre-treatment; TNFα 10 ng/ml 30 min. The protocol: as §1, §2
In general terms: Immunoblotting shows a protein as a band on a membrane.

As to `CC1=C(CC(=O)O)c2cc(F)ccc2/C1=C\c1ccc([S+](C)[O-])cc1` (stereo not drawn) [sulindac, (Z)-5-fluoro-2-methyl-1-[p-(methylsulfinyl)benzylidene]-indene-3-acetic acid], the IL-8 transcription result with IL-8 promoter is “decreased IL-8 transcription”. For the same compound, the IL-8 secretion entry in the assay on IL-8 secretion is “decrease of IL-8 secretion”. The “AP-1 transcriptional activity induced by TNF” value in assay [1] is given as “causes a decrease in the induction”. Moreover, in assay [2], the PPAR transcriptional activity result is on record as “increase in the transcriptional activity of PPAR”. Besides, in the assay with IκB, the “degradation of cytosolic IκB induced by TNFα” value is listed as “did not modified this effect; also recorded: did not affect the degradation of IκB”. Also, in the assay on p65, the “nuclear translocation of NF-κB (nuclear p65 quantity)” value is recorded as “not significantly modified; also recorded: did not prevent the nuclear translocation of NF-κB”.
